Each block holds one compound with its values, some of them ahead of it.
How the values were obtained:
Test in all cases: in-line probing
[1] = test system: 85 pnuC (RNA, riboswitch) GGAGGAGAAGCGGUUCAAAUCGAAAAUCUAUAGAGCGUUGCGUCCGAAAGUCUAAACAGACACGGCUCUUUAAAAACAAAAGGAGAAG; conditions: 20 mM Mg2+, 100 mM K+; 50 mM Tris-HCl pH 8.3, ~23 °C; tested at 0.1 and 1 mM
[2] = test system: 65 pnuC (RNA, riboswitch) GGAAAAUCUAUAGAGCGUUGCGUCCGAAAGUCUAAACAGACACGGCUCUUUAAAAACAAAAGGAGAAG; conditions: 20 mM Mg2+, 100 mM K+, 50 mM Tris-HCl pH 8.3, ~23 °C
[3] = test system: M1 (G35U) (RNA, riboswitch) GGAAAAUCUAUAGAGCUUUGCGUCCGAAAGUCUAAACAGACACGGCUCUUUAAAAACAAAAGGAGAAG; conditions: 20 mM Mg2+, 100 mM K+; 50 mM Tris-HCl pH 8.3, ~23 °C; tested at 1 mM
[4] = test system: M2 (A60U) (RNA, riboswitch) GGAAAAUCUAUAGAGCGUUGCGUCCGAAAGUCUAAACAGACUCGGCUCUUUAAAAACAAAAGGAGAAG; conditions: 20 mM Mg2+, 100 mM K+; 50 mM Tris-HCl pH 8.3, ~23 °C; tested at 1 mM

binding [1]: no
Structure (SMILES): Cc1ncc(C[n+]2csc(CCOP(=O)(O)OP(=O)(O)O)c2C)c(N)n1

binding [1]: no
Structure (SMILES): Cc1cc2nc3c(=O)[nH]c(=O)nc-3n(C[C@H](O)[C@H](O)[C@H](O)COP(=O)(O)O)c2cc1C

binding ([2]; tested at 0.1 and 1 mM): no
Structure (SMILES): O=C(O)c1cccnc1

binding [1]: yes
binding [3]: no
binding [4]: no
Structure (SMILES): NC(=O)c1ccc[n+]([C@@H]2O[C@H](COP(=O)(O)O)[C@@H](O)[C@H]2O)c1

KD ([2]; apparent): ~ 100 µM
Structure (SMILES): NC(=O)c1ccc[n+]([C@@H]2O[C@H](COP(=O)([O-])OP(=O)(O)OC[C@H]3O[C@@H](n4cnc5c(N)ncnc54)[C@H](O)[C@@H]3O)[C@@H](O)[C@H]2O)c1

— PMC7749635 (2021)
